We go through twelve compounds from BindingDB's records for PubMed 8301575 (Institut De Recherches Servier, 1994).

Assay [1] concerns the target 5-hydroxytryptamine receptor 2A (Rattus norvegicus, UniProt P14842).
The target in assay [2] is T1, 5-hydroxytryptamine receptor 2C (Sus scrofa, UniProt G7ZKZ7).
T1 sequence (G7ZKZ7 whole entry): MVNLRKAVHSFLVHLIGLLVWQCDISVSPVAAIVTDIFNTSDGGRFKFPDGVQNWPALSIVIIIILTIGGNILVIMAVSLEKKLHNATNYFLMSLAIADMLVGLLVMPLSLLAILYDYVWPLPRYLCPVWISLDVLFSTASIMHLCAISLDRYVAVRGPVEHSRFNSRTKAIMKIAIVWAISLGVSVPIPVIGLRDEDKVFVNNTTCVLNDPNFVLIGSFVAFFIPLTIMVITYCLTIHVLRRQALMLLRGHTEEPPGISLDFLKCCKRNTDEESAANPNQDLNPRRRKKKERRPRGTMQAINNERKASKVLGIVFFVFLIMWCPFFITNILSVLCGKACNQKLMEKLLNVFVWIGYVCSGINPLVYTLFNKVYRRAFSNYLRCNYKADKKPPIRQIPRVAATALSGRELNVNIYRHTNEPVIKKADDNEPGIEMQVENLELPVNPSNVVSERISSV

Assay [3] deals with T2, 5-hydroxytryptamine receptor 3A (Rattus norvegicus, UniProt P35563).
T2 sequence (P35563 whole entry): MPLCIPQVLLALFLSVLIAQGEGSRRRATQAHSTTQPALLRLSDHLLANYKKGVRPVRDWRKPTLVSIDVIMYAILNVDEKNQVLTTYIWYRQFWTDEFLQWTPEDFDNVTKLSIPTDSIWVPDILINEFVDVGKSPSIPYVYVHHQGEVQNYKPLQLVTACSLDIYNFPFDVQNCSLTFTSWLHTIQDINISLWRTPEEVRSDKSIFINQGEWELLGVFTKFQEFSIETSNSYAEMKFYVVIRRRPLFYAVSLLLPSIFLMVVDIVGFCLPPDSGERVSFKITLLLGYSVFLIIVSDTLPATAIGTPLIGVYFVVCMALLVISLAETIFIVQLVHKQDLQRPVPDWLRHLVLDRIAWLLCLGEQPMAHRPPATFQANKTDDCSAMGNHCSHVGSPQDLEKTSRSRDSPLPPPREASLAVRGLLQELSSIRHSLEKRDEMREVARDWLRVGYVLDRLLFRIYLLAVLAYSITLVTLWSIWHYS

For assay [4], the target named is 5-hydroxytryptamine receptor 1B (Rattus norvegicus, UniProt P28564).
Sequence of 5-hydroxytryptamine receptor 1B (P28564 whole entry): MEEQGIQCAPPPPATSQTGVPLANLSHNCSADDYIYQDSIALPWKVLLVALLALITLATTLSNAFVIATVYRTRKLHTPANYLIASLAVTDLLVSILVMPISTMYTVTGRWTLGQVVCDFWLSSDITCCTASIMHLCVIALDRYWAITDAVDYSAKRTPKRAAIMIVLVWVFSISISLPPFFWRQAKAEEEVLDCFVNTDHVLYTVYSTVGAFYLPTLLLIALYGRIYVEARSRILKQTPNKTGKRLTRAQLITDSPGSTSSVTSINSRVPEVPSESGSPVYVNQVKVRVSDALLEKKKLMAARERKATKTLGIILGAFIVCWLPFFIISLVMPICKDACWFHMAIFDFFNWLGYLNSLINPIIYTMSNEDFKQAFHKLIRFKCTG
The target of assay [5] is T3, 5-hydroxytryptamine receptor 1A (Rattus norvegicus, UniProt P19327).
T3 sequence (P19327 whole entry): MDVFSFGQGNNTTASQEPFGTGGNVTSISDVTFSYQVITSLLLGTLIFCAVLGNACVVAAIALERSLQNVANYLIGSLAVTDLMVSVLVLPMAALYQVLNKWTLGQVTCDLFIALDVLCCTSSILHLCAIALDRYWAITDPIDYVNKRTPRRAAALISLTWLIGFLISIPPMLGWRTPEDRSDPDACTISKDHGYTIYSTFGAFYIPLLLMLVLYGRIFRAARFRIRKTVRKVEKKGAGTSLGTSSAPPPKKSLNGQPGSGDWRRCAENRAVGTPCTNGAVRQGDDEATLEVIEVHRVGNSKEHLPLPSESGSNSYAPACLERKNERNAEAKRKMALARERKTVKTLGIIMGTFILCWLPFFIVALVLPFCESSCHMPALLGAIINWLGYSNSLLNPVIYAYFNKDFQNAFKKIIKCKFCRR

Sequence of 5-hydroxytryptamine receptor 2A (P14842 whole entry): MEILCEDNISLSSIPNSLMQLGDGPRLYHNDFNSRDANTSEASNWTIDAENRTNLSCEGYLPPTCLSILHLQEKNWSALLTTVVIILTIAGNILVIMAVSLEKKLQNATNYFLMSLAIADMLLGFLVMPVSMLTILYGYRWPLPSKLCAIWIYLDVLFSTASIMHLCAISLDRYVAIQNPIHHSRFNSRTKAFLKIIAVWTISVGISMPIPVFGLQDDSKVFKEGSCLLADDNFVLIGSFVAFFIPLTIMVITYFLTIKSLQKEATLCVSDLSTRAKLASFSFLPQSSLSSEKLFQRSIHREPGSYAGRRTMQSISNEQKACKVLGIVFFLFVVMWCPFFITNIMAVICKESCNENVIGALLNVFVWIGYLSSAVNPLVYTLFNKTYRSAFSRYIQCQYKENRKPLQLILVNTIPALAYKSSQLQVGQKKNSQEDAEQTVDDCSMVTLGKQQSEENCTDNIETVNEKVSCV

A word on the Ki: it is a dissociation constant, usually derived from enzyme kinetics or from competition with a known ligand. A lower Ki goes with tighter binding. Consider `COc1ccccc1N1CCN(CCN2C(=O)CC3(CCCC3)CC2=O)CC1`, for which the Ki is 1740 nM in assay [1], 234 nM in assay [2], 1000 nM in assay [3] and above 10000 nM in assay [4].
For `CC(C)(C)NCC(O)COc1cccc2c1SCCC2` (single isomer, unassigned; (-)) [TERTATOLOL(-)], the Ki in assay [1] came to 1450 nM; in assay [2], 363 nM; in assay [3] it was 1000 nM; in assay [5] it was 8.31 nM; in assay [4], 182 nM.
As for `c1cc2c(c(N3CCNCC3)c1)OCCO2` [1-(2,3-Dihydro-benzo[1,4]dioxin-5-yl)-piperazine], the Ki is 1380 nM in assay [1]; 170 nM in assay [2]; 1000 nM in assay [3]; 9.33 nM in assay [5]; 53.7 nM in assay [4].
For the compound `COc1ccccc1N1CCN(CCCCN2C(=O)c3ccccc3C2=O)CC1` [2-{4-[4-(2-Methoxy-phenyl)-piperazin-1-yl]-butyl}-isoindole-1,3-dione], the Ki in assay [1] was found to be 646 nM; in assay [2] it was 776 nM; in assay [4], 1070 nM.
Regarding `O=C(CCCN1CCC2(CC1)C(=O)NCN2c1ccccc1)c1ccc(F)cc1` [8-[4-(4-fluorophenyl)-4-oxidanylidene-butyl]-1-phenyl-1,3,8-triazaspiro[4.5]decan-4-one], the Ki in assay [2] was 977 nM; in assay [5] it was 115 nM; in assay [4] it was above 10000 nM.
As for `C=CCc1ccccc1OC[C@@H](O)CNC(C)C` [ALPRENOLOL,(-)], the Ki is 5010 nM in assay [1], 4470 nM in assay [2] and 100 nM in assay [4].
For `O=C1CC2(CCCC2)CC(=O)N1CCNCC1COc2ccccc2O1` (configuration not stated) [CAS_124756-23-6], the Ki in assay [1] is 1620 nM; in assay [2], 427 nM; in assay [5], 1.25 nM; in assay [4], 4570 nM.
`COC(=O)c1cc2c(N3CCN(CCCCN4C(=O)c5ccccc5S4(=O)=O)CC3)cccc2[nH]1` [CAS_141533-35-9]: the inhibition constant (Ki) in assay [5] was found to be 1.58 nM.
With `c1ccc2c(c1)CCC2CCN1CCN(c2cccc3c2OCCO3)CC1` (configuration not stated) [CAS_182596], the inhibition constant (Ki) in assay [1] worked out at 191 nM; in assay [2], 115 nM; in assay [3], 53.7 nM; in assay [5], 1.51 nM; in assay [4], 417 nM.
As for `c1ccc2c(c1)CC(N1CCN(c3cccc4c3OCCO4)CC1)C2` [NSC_132787], the Ki in assay [1] worked out at 214 nM; in assay [2] it was 537 nM; in assay [3] it was 1000 nM; in assay [4], 1740 nM.
As for `c1ccc2c(c1)CC2CCN1CCN(c2cccc3c2OCCO3)CC1` (configuration not stated) [NSC_182595], the inhibition constant (Ki) in assay [1] turned out to be 141 nM; in assay [2] it was 151 nM; in assay [3] it was 372 nM; in assay [5], 0.61 nM; in assay [4], 603 nM.
Regarding `COc1ccccc1N1CCN(C[C@@H](C(=O)NC(C)(C)C)c2ccccc2)CC1` [WAY 100135], the inhibitory constant (Ki) in assay [1] is 3470 nM; in assay [2], 3470 nM; in assay [3] it was 1000 nM; in assay [5] it was 32.4 nM; in assay [4], above 10000 nM.
